Measured values as given in US12622941B2, “Anticoccidial composition comprising ginkgo leaves and use thereof” (CJ CHEILJEDANG CORPORATION, priority 2020, dated 2026).

How the values were obtained:
Eimeria acervulina [1] = experiment: Eimeria acervulina sporozoite death rate by component of ginkgo leaf powder; type: cell-based
Experimental: (§1) A certain amount of oocysts of each protozoan was put in a tube containing glass beads and pulverized, and then to remove the crushed oocyst cell wall and other debris, internal sporocysts were purified using the percoll density gradient, and washed with PBS solution. A reagent comprising sodium taurocholic acid (Sigma aldrich, USA) and trypsin (Gibco, USA), respectively, was treated to sporocysts of Eimeria tenella, Eimeria acervulina and Eimeria maxima for excystation and they were incubated, and then they were washed with PBS solution once and protozoa were obtained.

Eimeria tenella [2] = experiment: Intracellular propagation inhibition of Eimeria tenella protozoa in MDBK cells (ITS-1 PCR); type: cell-based; settings: read-out: Intracellular protozoal propagation inhibitory effect (%)
Experimental: 100,000 MDBK cells (purchased from ATCC) were aliquoted in a 24-well plate, and then incubated at a temperature of 37° C. for 12 hours. The protozoan of Eimeria tenella was obtained similar to the method of Example 2 above. […] A negative control group is a MDBK cell infected by protozoa, and a positive control group means a group in which salinomycin and diclazuril solution was incubated with the Eimeria tenella protozoan. After removing the cells and protozoa inside the cells through pipetting, DNA was extracted from the cells, and PCR was performed using E. tenella ITS-1 (Internal transcribed spacer-1) gene-specific primers. The sequences of the used primers were described in Table 10 above.
Ct values before/after washing for each material were compared to calculate the cell invasion inhibition rate (%) of the protozoa and the intracellular protozoan propagation inhibition rate (%) through treatment of the material, and the result was shown in FIG. 2 and Table 11 below.

Eimeria tenella [3] = experiment: In vivo anticoccidial efficacy in broilers after Eimeria tenella challenge inoculation; settings: in feed: salinomycin 60 ppm, diclazuril 1 ppm, ginkgo leaf powder 125 ppm; for Anticoccidial index (ACI): Equation 2, out of 200 points; for Lesion index: appendix lesion score x 10; for ADG after challenge inoculation / Survival rate (%): broilers; for ADG after challenge inoculation: before to 7th day after challenge; for Survival rate (%): up to 8th day after challenge; for Oocyst index: from oocyst excretion % of infected negative control; for Daily weight gain compared to negative control group (RWG, %): relative to non-infected negative control; for Appendix lesion score: scale 0-4, 8th day after challenge
Experimental: An in vivo anticoccidial efficacy evaluation test was performed in an animal experiment facility in Gyeongsangnam-do, South Korea. One-day-old female Ross broilers were individually weighed and randomly divided into groups to use in an experiment. Matters and conditions for experimental design were described in Table 2.
For the feed, Korea Feed A1-choi product was used, and each material diclazuril (Yuhan Corporation YUHAN DICLA product), salinomycin (Cheil Bio Cheilsalino-60 product), gallic acid (Sigma product), the ginkgo leaf product prepared in Example 1-2) was added to the feed, respectively, at a concentration described in Table 3 below to be self-mixed. Antibiotics and supplements were not used in general feed and mixed feed, and no anticoccidial agent other than each material was added. Broilers were fed ad libitum throughout the experiment period. After putting 30 1-day-age broilers in cages randomly placed for each of the control group or test group and breeding, general feed (A1-choi product) was fed for 7 days, and then the mixed feed prepared above was ingested by dividing by control group or test group.
The feed formulation administered to the control group (negative control group or positive control group) and test group and whether coccidiosis was induced by Eimeria tenella were described in Table 3 below.
14-day-old broilers were orally inoculated (challenge inoculation) with 10,000 oocysts (over 90% sporulated Eimeria tenella oocysts) per individual to induce coccidiosis.
The anticoccidial efficacy by test group designed in Example 1-3 above was shown as an anticoccidial index (ACI), and the anticoccidial index was calculated by Equation 2 below. The ACI score is out of 200 points, and the higher the ACI score, the more excellent the anticoccidial ability, and when it is 120 points or more to less than 140 points, it is determined that it is effective as an anticoccidial material, and when it is 140 points or more to less than 160 points, it is determined that it is excellent as an anticoccidial material, and when it is 160 points or more, it is determined that the anticoccidial effect is very excellent (Luis Miguel De Pablos et al., Anticoccidial activity of maslinic acid against infection with Eimeria tenella in chickens, Parasitol Res, 2010). Anticoccidial index(ACI)=(survival rate after challenge inoculation (%))+(daily weight gain compared to negative control group(RWG,%))−(lesion score×10)−(fecal oocyst excretion amount index)(Equation 2) • 1) Survival rate: the number of dead individuals was recorded daily, and post mortem autopsy was performed to determine a cause of mortality, and the number of individuals who died due to causes other than coccidiosis was excluded. The survival rate (%) up to the 8th day after challenge inoculation was used for anticoccidial index calculation.
• 3) Lesion scoring: On the 8th day after challenge inoculation, an autopsy was conducted for 4 broilers per cage, and the intestines were incised and opened. Scoring was performed for each coccidial lesion in the appendix region of the broilers. The lesion scoring method was performed by referring to Johnson J K & Reid W M (1970) document (Joyce Johnson, W. Malcolm Reid, Anticoccidial drugs: Lesion scoring techniques in battery and floor-pen experiments with chickens, Experimental parasitology, 1970). The lesion score is on a scale of 0-4, and 0 point corresponds to normal appendix, and 1 point is a mild infection symptom, and 2 points is a moderate infection symptom, and 3 points is a severe infection symptom and 4 points is a case of showing a very severe infection symptom or causing death. A lesion index was calculated by multiplying the measured appendix lesion score by 10, and this was used for anticoccidial index calculation.
• 4) Fecal oocyst excretion amount: the entire feces on the 6˜8th day of challenge inoculation were collected by cage, mixed evenly, and then randomly sampled 3 times in total by 1 g each. […]

Eimeria acervulina [4] = experiment: Direct killing of protozoa (sporozoites), Eimeria acervulina; type: cell-based; settings: tested 1 to 500 ppm, vs PBS control
Experimental: (§2) In the present example, protozoan (sporozoite) direct killing ability evaluation was conducted against 3 representative Eimeria kinds known to be infected in most farms (E. tenella, E. acervulina, E. maxima).
as §1

Eimeria tenella [5] = experiment: Cell invasion inhibition of Eimeria tenella protozoa in MDBK cells (ITS-1 PCR); type: cell-based; settings: read-out: Cell invasion inhibitory effect of protozoan (%)
Experimental: 100,000 MDBK cells (purchased from ATCC) were aliquoted in a 24-well plate, and then incubated at a temperature of 37° C. for 12 hours. […] After removing the cells and protozoa inside the cells through pipetting, DNA was extracted from the cells, and PCR was performed using E. tenella ITS-1 (Internal transcribed spacer-1) gene-specific primers. The sequences of the used primers were described in Table 10 below. Ct values before/after washing for each material were compared and corrected with the ΔCt value of the negative control group to calculate the cell invasion inhibition rate (%) of the protozoa through treatment of each material, and the result was shown in FIG. 2 and Table 11 below.

Eimeria maxima = experiment: Direct killing of protozoa (sporozoites), Eimeria maxima; type: cell-based; settings: tested 1 to 500 ppm, vs PBS control
Experimental: as §2, §1

Eimeria tenella [6] = experiment: Direct killing of protozoa (sporozoites), Eimeria tenella; type: cell-based; settings: tested 1 to 500 ppm, vs PBS control
Experimental: as §2, §1

Row | Structure (SMILES) | Eimeria acervulina sporozoite death rate (%) (Eimeria acervulina [1]; 8 ppm) | Eimeria acervulina sporozoite death rate (%) (Eimeria acervulina [1]; 16 ppm) | Eimeria acervulina sporozoite death rate (%) (Eimeria acervulina [1]; 31 ppm) | Eimeria acervulina sporozoite death rate (%) (Eimeria acervulina [1]; 63 ppm) | Eimeria acervulina sporozoite death rate (%) (Eimeria acervulina [1]; 125 ppm) | Eimeria acervulina sporozoite death rate (%) (Eimeria acervulina [1]; 250 ppm) | Eimeria acervulina sporozoite death rate (%) (Eimeria acervulina [1]; 500 ppm) | Anticoccidial index (ACI) (Eimeria tenella [3]) | Lesion index (Eimeria tenella [3]) | ADG after challenge inoculation (Eimeria tenella [3]) [g/day] | Survival rate (%) (Eimeria tenella [3]) | Oocyst index (Eimeria tenella [3]) | Daily weight gain compared to negative control group (RWG, %) (Eimeria tenella [3]) [%] | Appendix lesion score (Eimeria tenella [3]) | Minimum concentration for killing 50% protozoa (sporozoites) (ppm) (Eimeria acervulina [4]) | Minimum concentration for killing 50% protozoa (sporozoites) (ppm) (Eimeria maxima) | Minimum concentration for killing 50% protozoa (sporozoites) (ppm) (Eimeria tenella [6]) | other results
1 | CC(C)(C)C1(O)CC2OC(=O)CC23C(=O)OC2OC(=O)C(O)C231 (stereo not drawn) [Bilobalide] | 0 | 0 | 0 | 8 | 14 | 41 | 51 |  |  |  |  |  |  |  |  |  |  | 
2 | O=c1c(O)c(-c2ccc(O)c(O)c2)oc2cc(O)cc(O)c12 [Quercetin] | 0 | 0 | 0 | 8 | 34 | 47 | 68 |  |  |  |  |  |  |  |  |  |  | 
3 | N#CC(c1ccc(Cl)cc1)c1c(Cl)cc(-n2ncc(=O)[nH]c2=O)cc1Cl (stereo not drawn) [Diclazuril, diclazuril] |  |  |  |  |  |  |  | 148 | 29 | 62 | 97 | 10 | 93 | 2.88 | >500 | >500 | 500 | inhibition at 0.5 ppm (Eimeria tenella [2]; 0.5 ppm, MDBK cells): 45.9%; inhibition at 1 ppm (Eimeria tenella [2]; 1 ppm, MDBK cells): 52.9%; inhibition at 0.5 ppm (Eimeria tenella [5]; 0.5 ppm, MDBK cells, 24 hours): 0%; inhibition at 1 ppm (Eimeria tenella [5]; 1 ppm, MDBK cells, 24 hours): 6.3%
4 | CC[C@@H](C(=O)[C@@H](C)[C@@H](O)[C@H](C)[C@@H]1O[C@@H]([C@@H](CC)C(=O)O)CC[C@@H]1C)[C@H]1O[C@]2(C=C[C@@H](O)[C@]3(CC[C@@](C)([C@H]4CC[C@](O)(CC)[C@H](C)O4)O3)O2)[C@H](C)C[C@@H]1C [Salinomycin, salinomycin] |  |  |  |  |  |  |  | 141 | 27 | 62 | 93 | 20 | 94 | 2.7 | 100 | 250 | 125 | inhibition at 5 ppm (Eimeria tenella [2]; MDBK): 32.2%; inhibition at 10 ppm (Eimeria tenella [2]; MDBK): 34.8%; inhibition at 5 ppm (Eimeria tenella [5]; MDBK, 24 h): 50.1%; inhibition at 10 ppm (Eimeria tenella [5]; MDBK, 24 h): 56.4%
5 | O=c1c(O)c(-c2ccc(O)cc2)oc2cc(O)cc(O)c12 [Kaempferol] | 0 | 0 | 0 | 0 | 1 | 27 | 54 |  |  |  |  |  |  |  |  |  |  | 
6 | O=C(O)c1cc(O)c(O)c(O)c1 [Gallic acid, gallic acid] |  |  |  |  |  |  |  |  |  |  |  |  |  |  | >500 | >500 | >500 | inhibition at 5 ppm (Eimeria tenella [2]; 5 ppm, MDBK cells): 0%; inhibition at 10 ppm (Eimeria tenella [2]; 10 ppm, MDBK cells): 0%; inhibition at 5 ppm (Eimeria tenella [5]; 5 ppm, MDBK cells, 24 hours): 76%; inhibition at 10 ppm (Eimeria tenella [5]; 10 ppm, MDBK cells, 24 hours): 90.1%; Minimum concentration for killing 50% protozoa (sporozoites) (ppm) (Eimeria tenella [6]; listed as gallic acid): > 500 ppm
